Measurements published in article PMC10020352 (Frontiers in Pharmacology, 2023).
Where a SMILES comes first, the peptide text is derived from it. [ ]: non-standard residue; d: D form. Phe(4-NO2) = N[C@@H](Cc1ccc([N+](=O)[O-])cc1)C(=O)O; Phe(4-Cl) = N[C@@H](Cc1ccc(Cl)cc1)C(=O)O; Phe(4-F) = N[C@@H](Cc1ccc(F)cc1)C(=O)O; NMeR = CN[C@@H](CCCNC(=N)N)C(=O)O; Sar = CNCC(=O)O

Assays:
[1] = target: T1, bovine pancreatic trypsin (Bos taurus, UniProt P00760); assay: Metabolic stability in trypsin; format: in vitro ADME; details: bovine pancreatic trypsin 2.5 μg/mL, pH 8-8.5, 37°C, peptide 100 μM; read-out: Stability (t1/2) Trypsin
T1 sequence (P00760 24-246): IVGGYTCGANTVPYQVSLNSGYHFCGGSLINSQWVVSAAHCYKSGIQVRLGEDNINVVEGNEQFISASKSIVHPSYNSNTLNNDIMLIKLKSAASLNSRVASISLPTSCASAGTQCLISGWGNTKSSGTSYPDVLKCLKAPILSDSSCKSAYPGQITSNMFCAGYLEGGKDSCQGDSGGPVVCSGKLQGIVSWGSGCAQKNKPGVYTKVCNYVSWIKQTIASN
Experimental: (§1) Whole blood was collected in-house from adult mixed-gender Wistar rats (RRID: RGD_150520162), and plasma was prepared in 0.2% EDTA as per standard practice. Peptides (final 100 μM) were incubated with pooled rat plasma at 37°C. Samples were collected at different time intervals 0, 5, 10, 15, 30, 60, and 120 min. At each time point, collected samples were immediately added to three volumes of cold ACN. This mixture was vortexed for 30 s and then centrifuged at room temperature (13 K rpm, 5 min). The supernatant was taken and directly placed in glass HPLC vials for LCMS analysis. The protocol for the trypsin stability assay was as for the plasma stability assay except for the […] (bovine pancreatic trypsin 2.5 μg/mL in NH4HCO3 buffer, approx. pH 8–8.5, 37°C).
(§2) Relative concentrations of each peptide from stability assays in plasma or trypsin were analysed using an Agilent binary LC system consisting of an Agilent 1290 Infinity LC pump, Agilent 1,290 auto-sampler coupled with Triple Quad Mass-Spectrometer (MS, model 6460, Agilent Technologies). A bidentate C18 HPLC column (Cogent, 100 Å, […]) with a binary solvent gradient composed of Solvent: A 0.1%v/v formic acid in MQ water and Solvent B: 0.1% v/v formic acid in ACN was used for the separation. The MS parameters were optimised for all compounds to obtain the highest signal in positive Total Ion Current (TIC) mode. Data were analysed using a combination of Microsoft Excel and GraphPad Prism software packages. Data was normalised to time point zero (immediately after compound addition) and expressed in percentages from t = 0. Half-lives were calculated in GraphPad Prism software (v8.3).

[2] = target: T2, DOP receptor (Homo sapiens, UniProt P41143); assay: cell-based
T2 construct: expressed in transfected cells; host or cells: HEK293

[3] = target: T3, MOP receptor (Homo sapiens, UniProt P35372); assay: cell-based
T3 construct: expressed in transfected cells; host or cells: HEK293

[4] = target: KOP receptor (Homo sapiens, UniProt P41145); assay: cell-based; format: cell-based
[5] = Metabolic stability in rat plasma; format: in vitro ADME; details: rat, plasma, pooled rat plasma, 37°C, peptide 100 μM; read-out: Stability (t1/2) Plasma
Experimental: as §1, §2

T2 sequence (P41143 whole entry): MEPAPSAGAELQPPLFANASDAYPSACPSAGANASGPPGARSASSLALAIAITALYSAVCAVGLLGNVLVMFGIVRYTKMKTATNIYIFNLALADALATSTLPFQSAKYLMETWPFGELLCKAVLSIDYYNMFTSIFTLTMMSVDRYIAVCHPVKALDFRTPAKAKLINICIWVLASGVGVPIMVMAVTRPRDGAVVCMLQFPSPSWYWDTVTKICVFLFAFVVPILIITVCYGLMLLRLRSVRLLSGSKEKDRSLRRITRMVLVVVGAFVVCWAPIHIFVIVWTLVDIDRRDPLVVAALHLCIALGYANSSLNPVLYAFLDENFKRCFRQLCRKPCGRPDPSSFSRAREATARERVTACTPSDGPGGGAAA
T3 sequence (P35372 whole entry): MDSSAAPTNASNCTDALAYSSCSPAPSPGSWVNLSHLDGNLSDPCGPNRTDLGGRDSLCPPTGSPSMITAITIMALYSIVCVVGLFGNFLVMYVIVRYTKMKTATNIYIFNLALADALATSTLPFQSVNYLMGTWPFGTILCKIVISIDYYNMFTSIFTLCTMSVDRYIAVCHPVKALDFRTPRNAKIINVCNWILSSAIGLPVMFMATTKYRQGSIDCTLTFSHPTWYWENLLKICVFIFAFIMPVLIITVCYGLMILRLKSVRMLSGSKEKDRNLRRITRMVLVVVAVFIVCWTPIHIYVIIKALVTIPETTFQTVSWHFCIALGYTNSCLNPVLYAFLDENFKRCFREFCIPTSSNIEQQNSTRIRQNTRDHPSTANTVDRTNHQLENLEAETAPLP
Sequence of KOP receptor (P41145 whole entry): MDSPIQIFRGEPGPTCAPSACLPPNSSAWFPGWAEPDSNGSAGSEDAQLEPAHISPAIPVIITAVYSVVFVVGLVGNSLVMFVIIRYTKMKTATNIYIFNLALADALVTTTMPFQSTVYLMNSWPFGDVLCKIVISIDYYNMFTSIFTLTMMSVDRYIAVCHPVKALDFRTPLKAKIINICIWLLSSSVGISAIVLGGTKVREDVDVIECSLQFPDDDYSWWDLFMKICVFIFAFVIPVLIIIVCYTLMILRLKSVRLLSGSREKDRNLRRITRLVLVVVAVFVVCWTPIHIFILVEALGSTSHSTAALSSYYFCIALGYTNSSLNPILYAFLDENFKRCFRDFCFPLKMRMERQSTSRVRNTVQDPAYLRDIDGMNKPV

Row | Compound | half-life [1] | EC50 [2] | Selectivity (fold) KOP/DOP [2] | EC50 [3] | Selectivity (fold) KOP/DOP [3] | EC50 [4] | half-life [5] | selectivity for KOP receptor over MOP receptor and DOP receptor [4]
1 | CC(C)C[C@@H](NC(=O)[C@@H](Cc1ccccc1)NC(=O)[C@H](N)Cc1ccccc1)C(=O)N[C@H](CCCCN)C(=O)N1CCC(N)(C(=O)O)CC1 [CR845, reference compound] | > 1000 min | – | – | – | – | – | – | –
2 | CC(C)C[C@H](NC(=O)[C@H](Cc1ccc([N+](=O)[O-])cc1)NC(=O)CNC(=O)CNC(=O)[C@@H](N)Cc1ccc(O)cc1)C(=O)N[C@@H](CCCNC(=N)N)C(=O)N[C@H](CCCNC(=N)N)C(N)=O [KA201] | 6.4 min | 2.18 µM | 2 fold | 1.72 µM | 2 fold | 1.09 µM | – | –
3 | CC(C)C[C@H](NC(=O)[C@H](Cc1ccc([N+](=O)[O-])cc1)NC(=O)CNC(=O)CN(C)C(=O)[C@@H](N)Cc1ccc(O)cc1)C(=O)N[C@@H](CCCNC(=N)N)C(=O)N[C@H](CCCNC(=N)N)C(N)=O [KA202] | 8.5 min | > 10 µM | – | > 10 µM | – | 0.93 µM | – | –
4 | CC(C)C[C@H](NC(=O)[C@H](Cc1ccccc1)NC(=O)CN(C)C(=O)[C@@H](N)Cc1ccc(O)cc1)C(=O)N[C@@H](CCCNC(=N)N)C(=O)N[C@H](CCCNC(=N)N)C(N)=O [KA203] (H-Y[Sar]FLR[dR]-NH2) | 13.6 min | > 10 µM | – | > 10 µM | – | 0.0747 µM | 72 min | –
5 | CC(C)C[C@H](NC(=O)[C@H](Cc1ccc([N+](=O)[O-])cc1)NC(=O)CN(C)C(=O)[C@@H](N)Cc1ccc(O)cc1)C(=O)N[C@H](CCCNC(=N)N)C(=O)N[C@@H](CCCNC(=N)N)C(N)=O [KA205] (H-Y[Sar][Phe(4-NO2)]L[dR]R-NH2) | 3260 min | 3.92 µM | 2 fold | > 10 µM | – | 1.8 µM | 28.7 min | –
6 | CC(C)C[C@H](NC(=O)[C@H](Cc1ccc(Cl)cc1)NC(=O)CN(C)C(=O)[C@@H](N)Cc1ccc(O)cc1)C(=O)N[C@@H](CCCNC(=N)N)C(=O)N[C@H](CCCNC(=N)N)C(N)=O [KA206] (H-Y[Sar][Phe(4-Cl)]LR[dR]-NH2) | 15.9 min | > 10 µM | – | > 10 µM | – | 0.0061 µM | 31.9 min | –
7 | CC(C)C[C@H](NC(=O)[C@H](Cc1ccc(F)cc1)NC(=O)CN(C)C(=O)[C@@H](N)Cc1ccc(O)cc1)C(=O)N[C@@H](CCCNC(=N)N)C(=O)N[C@H](CCCNC(=N)N)C(N)=O [KA207] (H-Y[Sar][Phe(4-F)]LR[dR]-NH2) | 7.6 min | > 10 µM | – | 3.45 µM | 515 fold | 0.0067 µM | 38.2 min | –
8 | CC(C)C[C@H](NC(=O)[C@H](Cc1ccc(Cl)cc1)NC(=O)CN(C)C(=O)[C@@H](N)Cc1ccc(O)cc1)C(=O)N(C)[C@@H](CCCNC(=N)N)C(=O)N[C@H](CCCNC(=N)N)C(N)=O [KA301] (H-Y[Sar][Phe(4-Cl)]L[NMeR][dR]-NH2) | – | – | – | – | – | – | 2240 min | –
9 | CC(C)C[C@H](NC(=O)[C@H](Cc1ccc(Cl)cc1)NC(=O)[C@H](C)NC(=O)[C@@H](N)Cc1ccc(O)cc1)C(=O)N[C@@H](CCCNC(=N)N)C(=O)N[C@H](CCCNC(=N)N)C(N)=O [KA307] (H-YA[Phe(4-Cl)]LR[dR]-NH2) | – | > 10 µM | – | 1.87 µM | 2 fold | 1.04 µM | – | –
10 | C[C@@H](O)[C@H](NC(=O)[C@H](Cc1ccc(Cl)cc1)NC(=O)CN(C)C(=O)[C@@H](N)Cc1ccc(O)cc1)C(=O)N[C@@H](CCCNC(=N)N)C(=O)N[C@H](CCCNC(=N)N)C(N)=O [KA308] (H-Y[Sar][Phe(4-Cl)]TR[dR]-NH2) | – | > 10 µM | – | 5.82 µM | 25 fold | 0.23 µM | – | –
11 | CC(C)C[C@H](NC(=O)[C@H](Cc1ccc([N+](=O)[O-])cc1)NC(=O)CN(C)C(=O)[C@@H](N)Cc1ccc(O)cc1)C(=O)N[C@@H](CCCNC(=N)N)C(=O)N(C)[C@@H](CCCNC(=N)N)C(N)=O [KA310] (H-Y[Sar][Phe(4-NO2)]LR[NMeR]-NH2) | > 1000 min | > 10 µM | – | > 10 µM | – | 0.00177 µM | – | > 1000 fold
